Reference: patent US20170035828A1, “COMPOSITION CONTAINING SCUTELLARIA ALPINA EXTRACT” (AMOREPACIFIC CORPORATION, priority 2014, published 2017)

Columns and labels:
Type in all cases: cell-based, human
[1] = system: NK1R (neurokinin 1 receptor) gene; test: Gene expression assay by real-time PCR (NK1R) in melanocytes; settings: melanocytes (KaMC), 2 nM substance P, 5 days
Experimental: (§1) Melanocytes (KaMC; KCTC 12015BP) deposited in the Korean Collection for Type Culture (KCTC) were cultured in M-254 medium (Gibco BRL, NY, USA) supplemented with Human Melanocyte Growth Supplement (HMGS; Gibco BRL, NY, USA) on a 6-well plate, while changing the medium every other day, in a 5% CO2 incubator at 37° C. until the cells occupied 95% of the plate area (95% confluence). […] The cells not treated with substance P or the alpine skullcap (Scutellaria alpina) extract of Example 1 were used as a control group. After removing the medium form the melanocytes cultured on the 6-well plate, the cells were washed 2 times with cold phosphate-buffered saline (PBS) and the remaining water was completely removed. […] 1 μL of the RNA was quantified using Synergy II (Biotek, USA). […] After adding 10 μL of Taqman Gene Expression Master Mix (Life Technologies, USA) and 1 μL of Assays-on-DemandTM (Life Technologies, USA) of NK1R (ACCESSION: NM_001058) and EDN1 (ACCESSION: NM_001168319) genes to 9 μL of the diluted cDNA, the expression of the genes was analyzed by relative quantification using 7500 Fast Real-Time PCR (Life Technologies, USA) with glyceraldehyde 3-phosphate dehydrogenase (GAPDH, ACCESSION: NM001256799) as a control gene. […]

EDN1 (endothelin 1) gene = test: Gene expression assay by real-time PCR (EDN1) in melanocytes; settings: melanocytes (KaMC), 2 nM substance P, 5 days
Experimental: as §1

endothelin 1 (EDN1) = test: Endothelin 1 ELISA assay of culture medium of treated melanocytes; settings: melanocytes (KaMC), 2 nM substance P
Experimental: When the density of the melanocytes on the 6-well plate reached about 80% (˜80% confluence), they were incubated for a total of 5 days with 2 nM of stress-inducing substance P (Bachem Fechemikalien, Bubendorf, Switzerland) or the alpine skullcap (Scutellaria alpina) extract of Example 1 of different concentrations (0, 0.1, 1, 2 and 5 ppm). The cells not treated with substance P or the alpine skullcap (Scutellaria alpina) extract of Example 1 were used as a control group.
The culture medium of the cells treated with the extract in (2) of Test Example 1 were recovered and the amount of endothelin 1 (EDN1) comprised in the medium was measured at 450 nm using the human total endothelin ELISA kit (MyBioSource, USA).
Endothelin content (%)=(Absorbance/Total protein)×100 [Equation 1]

- expression of the NK1R gene (relative quantification vs GAPDH, control group = 1) [1]: 3.8
SMILES: CSCC[C@H](NC(=O)[C@H](CC(C)C)NC(=O)CNC(=O)[C@H](Cc1ccccc1)NC(=O)[C@H](Cc1ccccc1)NC(=O)[C@H](CCC(N)=O)NC(=O)[C@H](CCC(N)=O)NC(=O)[C@@H]1CCCN1C(=O)[C@H](CCCCN)NC(=O)[C@@H]1CCCN1C(=O)[C@@H](N)CCCN=C(N)N)C(N)=O [substance P]
- expression of the EDN1 gene (relative quantification vs GAPDH, control group = 1) (EDN1 (endothelin 1) gene): 3.3
- content of endothelin 1 (Absorbance/Total protein x 100, control group = 100%) (endothelin 1 (EDN1)): 124%
